Assay results as given in patent US4883661A, “Use of arginine as an lymphokine synergist” (priority 1987, dated 1989).

Columns and labels:
[1] = intraperitoneal, after 24 hour starvation, rats; cited from earlier work
[2] = 30 g daily in divided doses for 1 week, human; cited from earlier work
[3] = system: peripheral blood lymphocyte; conditions: daily oral supplements (30 g), cited from earlier work
[4] = 1% in drinking water 6 days after the injury; cited from earlier work
[5] = given prior to or concomitantly with amino acids, glycine or ammonia; rats; cited from earlier work
allolymphoblasts = assay: Cytotoxic T lymphocyte (CTL) development, 4 hour chromium release, mice on dietary supplement; type: in vivo, CBA/J mice; conditions: for CTL cytotoxicity (% toxicity): 1% dietary supplementation at least 10 days, 4 hour chromium release assay, * p,0.05 Student's t test (ARG)
Method: (§1) The effect of arginine on IL-2 dependent responses is shown by the following example. The effect of arginine on two IL-2 - dependent responses (T cell activation and cytotoxic T lymphocyte (CTL) development)and on interferon-influenced natural killer (NK) cell activity was evaluated.
(§2) CBA/J mice (n=100) received 1% arginine (ARG) dietary supplementation o isonitrogenous glycine (GLY) for al least 10 days. CTL development was determined by sensitizing mice to BALB/C spleen cell alloantigen in vivo (×3 immunizations) and measuring cytotoxicity against allolymphoblasts as targets. Basal and Poly I:C - induced NK activity was measured against YAC targets. Using indirect immunofluorescence, IL-2 receptor expression (M7/20) on purified splenic T cells was determined 24 and 48 hours after con A activation. Results are presented in Table 1 wherein data are expressed as % toxicity in a 4 hour Chromium release assay (CTL and NK cells only) and % expression (IL-2). (*p,0.05 Student's T test)

YAC targets = assay: Basal and Poly I:C-induced natural killer (NK) activity, 4 hour chromium release, mice on dietary supplement; type: in vivo, CBA/J mice; conditions: for NK(Induced) activity (% toxicity): Poly I:C-induced, * p,0.05 (ARG); for NK(Induced) activity (% toxicity) / NK(basal) activity (% toxicity): 1% dietary supplementation at least 10 days, YAC targets, 4 hour chromium release
Method: as §1, §2

IL-2 receptor = IL-2 receptor expression (M7/20) on purified splenic T cells after con A activation, indirect immunofluorescence; type: in vivo, CBA/J mice; conditions: for IL 2 (24 hr) receptor expression (% expression): 24 hours after con A activation; for IL 2 (24 hr) receptor expression (% expression) / IL 2 (48 hr) receptor expression (% expression): * p,0.05 (ARG); for IL 2 (48 hr) receptor expression (% expression): 48 hours after con A activation
Method: as §1, §2

thymocytes = assay: Concanavalin A stimulation of thymocytes, C1300 tumor bearing protein malnourished mice; type: in vivo, A/J mice; conditions: mean ± SD, * p<0.001, low protein diet + 1% supplement
Method: (§3) The effects of supplemental arginine (ARG) in the malnourished tumor bearing host were evaluated. […] Body weight, tumor weight and carcass weight were measured weekly and duration of survival was recorded. On day 10, specific T cell cytotoxicity was measured; concanavalin A (con A) stimulation of thymocytes and mixed lymphocyte tumor cell culture (MLTC) were measured on days 14 (d14) and 21(d21) (n=5/group).

C1300 neuroblastoma [6] = assay: Mixed lymphocyte tumor cell culture (MLTC), C1300 tumor bearing protein malnourished mice; type: in vivo, A/J mice; conditions: for MLTC Stimulation Index (d21): day 21
Method: as §3

C1300 neuroblastoma [7] = assay: Tumor growth and survival, C1300 neuroblastoma in protein malnourished mice; type: in vivo, A/J mice; conditions: for median survival: ARG p<0.001 compared with GLY and LPD (LPD, 29 days)
Method: as §3

[8] = Body weight and carcass weight, C1300 tumor bearing protein malnourished mice; type: in vivo, A/J mice; conditions: for total body weight and mean carcass weight: compared with LPD mice
Method: as §3

C1300 neuroblastoma [9] = conditions: mouse, in vivo
Method: Body weight, tumor weight and carcass weight were measured weekly and duration of survival was recorded. On day 10, specific T cell cytotoxicity was measured; concanavalin A (con A) stimulation of thymocytes and mixed lymphocyte tumor cell culture (MLTC) were measured on days 14 (d14) and 21(d21) (n=5/group).

C3HBA tumors = conditions: supplemented after tumor excision, cited from earlier work
[10] = system: breast adenocarcinoma (C3HBA); conditions: rats; cited from earlier work
lymphocytes = conditions: in vitro incubation in media with higher amounts of arginine; cited from earlier work
thymus = conditions: cited from earlier work
[11] = dietary supplement before and/or after wounding, rats; cited from earlier work
[12] = humans, mainly liver disease; cited from earlier work
[13] = dietary arginine, young growing rat; cited from earlier work
[14] = mean ± SD, low protein diet + 1% supplement

Cl.N=C(N)NCCC[C@H](N)C(=O)O [arginine HCl]
LD50 [1]: 3800 mg/kg | untoward effects [2]: no untoward effects except for mild gastrointestinal discomfort | peripheral blood lymphocyte blastogenesis ([3]; healthy volunteers): increased | time until blastogenesis effect is evident [3]: ≤ 3 days | recovery [4]: 100% | weight loss after injury [4]: reversed the weight loss

NC(=O)NCCC[C@H](N)C(=O)O [citrulline, reference compound]
protection against toxic effects of hyperammonemia [5]: share the "detoxifying" effects of arginine

NCC(=O)O [GLY, glycine, reference compound]
CTL cytotoxicity (% toxicity) (allolymphoblasts): 54 ± 14% | NK(Induced) activity (% toxicity) (YAC targets): 24 ± 14% | NK(basal) activity (% toxicity) (YAC targets): 13 ± 4% | IL 2 (24 hr) receptor expression (% expression) (IL-2 receptor): 30 ± 4% | IL 2 (48 hr) receptor expression (% expression) (IL-2 receptor): 46 ± 45% | ConA Stimulation Index (d21) (thymocytes; day 21): 24.9 ± 5 | ConA Stimulation Index (thymocytes; first ConA column (d14 per text)): 38.4 ± 7 | MLTC Stimulation Index (d14) (C1300 neuroblastoma [6]; day 14, mean ± SD, * p<0.001, low protein diet + 1% supplement): 3.3 ± 0.9 | MLTC Stimulation Index (d21) (C1300 neuroblastoma [6]; [14]): 2.5 ± 0.8 | median survival (C1300 neuroblastoma [7]): 30 days | total body weight and mean carcass weight [8]: significantly preserved | Cytotoxicity (C1300 neuroblastoma [9]): 15 ± 1.4%

N=C(N)NCCC[C@H](N)C(=O)O [ARG, arginine]
CTL cytotoxicity (% toxicity) (allolymphoblasts): 69 ± 15% | CTL activity, in words (allolymphoblasts; supplemental arginine): significantly augmented | NK(Induced) activity (% toxicity) (YAC targets): 43 ± 12% | NK(basal) activity (% toxicity) (YAC targets): 19 ± 5% | inducible NK activity, in words (YAC targets; supplemental arginine): significantly augmented | IL 2 (24 hr) receptor expression (% expression) (IL-2 receptor): 52 ± 4% | IL 2 (48 hr) receptor expression (% expression) (IL-2 receptor): 59 ± 6% | IL-2 receptor kinetics, in words (IL-2 receptor; supplemental arginine): enhanced | MLTC Stimulation Index (d21) (C1300 neuroblastoma [6]; [14]): 2.2 ± 1.3 | immune responses in tumor bearing protein malnourished mice (C1300 neuroblastoma [6]; supplemental ARG): augmented immune responses | median survival (C1300 neuroblastoma [7]): 38 days | median survival, in words (C1300 neuroblastoma [7]; p<0.001 compared with GLY and LPD mice): prolonged | tumor growth (C1300 neuroblastoma [7]; p<0.05, compared with GLY and LPD mice): retarded tumor growth | total body weight and mean carcass weight [8]: significantly preserved | host nutritional status ([8]; supplemental ARG): preserved | survival time of mice which subsequently developed tumors (C3HBA tumors): prolonged survival time | tumor recurrence rate (C3HBA tumors; without supplement 100% recurrence): 30% | tumor appearance [10]: slowed tumor appearance | tumor incidence [10]: reducing tumor incidence | blastogenic responses in vitro (lymphocytes): does not lead to greater blastogenic responses | lymphocyte content of the thymic glands (thymus; in vivo): significant increases | thymic involution with injury (thymus; injured): minimizes the thymic involution | blastogenesis of the lymphocytes in response to mitogens (thymus; thymic): significant enhancement | thymic weight (thymus; uninjured rats and mice): increases thymic weight | wound healing [11]: accelerated | protection against toxic effects of hyperammonemia [5]: abrogated | therapeutic effect, elevated blood ammonia [12]: ranged from excellent to minimal | growth [13]: more rapid growth
